Test results taken from patent US8343945B2, “Carriers, formulations, methods for formulating unstable active agents for external application and uses thereof” (Foamix Ltd., priority 2007, dated 2013).
Entries after “also recorded” stand apart in the source; their conditions may differ.

What was measured:
[1] = Doxycycline Hyclate compatibility test with excipients; assay type: physicochemical; conditions: for Visual inspection after the storage at 25° C.: stored at 25° C. for two weeks; for Visual inspection after the storage at 40° C.: stored at 40° C. for two weeks; for Visual inspection after the storage at 50° C.: stored at 50° C. for two weeks
Description: (§1) Different compositions of hydrophilic and hydrophobic solvents containing Doxycycline Hyclate (Set I and Set II) and Doxycycline Monohydrate (Set III) were prepared by weighing the antibiotic in a glass vial and shaking overnight with each solvent investigated.
Group II included Doxycycline Hyclate mixed with various vehicles with addition of antioxidants like alpha tocopherol, butylated hydroxytolyene (BHT), ascorbic acid.

[2] = Doxycycline Monohydrate compatibility test with excipients; assay type: physicochemical; conditions: for Compatibility with Doxycycline Monohydrate: Summary, compatibility tested after the storage for up to 3 weeks; for Compatibility with Doxycycline Monohydrate (text): as summarised in text, 40° and 50° C. for two weeks where stated; for Visual inspection at T-0 / Visual inspection after the storage at 25° C. / Visual inspection after the storage at 40° C. / Visual inspection after the storage at 50° C.: Mixtures of 1.04% w/w of Doxycycline Monohydrate with the ingredient; for Visual inspection after the storage at 25° C.: stored at 25° C. for two weeks; for Visual inspection after the storage at 40° C.: stored at 40° C. for two weeks; for Visual inspection after the storage at 50° C.: stored at 50° C. for two weeks
Description: as §1, with “investigated. Mixtures of Doxycycline salts 1.04% w/w with solid excipients were prepared in a similar way as for Minocycline HCl.” for “investigated.”
A similar compatibility test was performed on another form of Doxycycline-Doxycycline Monohydrate. Table 17b and Table 18.

[3] = Minocycline HCl compatibility tests with excipients (colour change, HPLC assay); assay type: physicochemical; conditions: for Compatibility with Minocycline HCL: Summary, compatibility tested after the storage for up to 3 weeks
Description: About 0.5 g foam or pre-foam formulation is dissolved with diluent (65% phosphate buffer: 35% Acetonitrile (ACN)) in a 25 mL volumetric flask. The sample is shaken […] on an inverted shaker stand for 10 min at room temperature. The resulting suspension is centrifuged for 5 minutes at 4000 rpm. The supernatant is separated by vacuum pump and filtered thereafter through a 0.45 μm PTFE+GL filter. The first few drops of the filtrate are discarded. The resultant clear solution layer is analyzed by HPLC using columnRP-8. The content of MCH is calculated against an MCH standard 0.4 mg/mL (concentration). The content of 4-epiminocycline is calculated against MCH standard 0.02 mg/mL (concentration).
Color is tested by visual observation and in particular by comparison to “Pantone® formula guide solid uncoated” colors. […] Minocycline changes color to orange/greenish with oxidation or complexation. These oxidized colors are not desirable. Colors such as 609U/608U/610U are indicative of degradation by the tetracycline antibiotic.
For convenience the excipients were divided into four different groups (I-IV).
Different compositions of hydrophilic and hydrophobic solvents containing minocycline HCl were prepared by weighing the antibiotic in a glass vial and shaking overnight with each solvent investigated (Group I and II).
Mixtures of Minocycline HCl with solid excipients like titanium dioxide, stearyl alcohol, myristyl alcohol etc were prepared by suspending Minocycline HCl in oil with stirring and then adding the solid ingredient as a powder with stirring at room temperature (Group III an IV).
Oxidation of minocycline after the storage at various temperatures was detected by color change. Assay for content of the active pharmaceutical ingredient (API) and degradation product (4-epiminocycline) was determined in some samples.
A series of experiments were performed to evaluate which mixture of components/ingredients were compatible or incompatible with minocycline. Each component or combinations of components were mixed with either 1.1% or 2.2% Minocycline HCl. The glass vials containing the formulations were wrapped in aluminum—and were subjected to a range of temperatures 25° C.; 30° C.; 40° C.; 50 C; for between one week to about 3 weeks. The best results are shown as “compatible no oxidation”.

[4] = Text: In one or more embodiments of the present disclosure, the foamable composition includes a potent solvent, in addition to or in place of one of the hydrophobic solvents, polar solvents or emollients of the composition. A potent solvent is a solvent other than mineral oil that solubilizes a specific active agent substantially better than a hydrocarbon solvent such as mineral oil or petrolatum.
[5] = cited from earlier work
[6] = Minocycline in hydrophilic vehicles dried with Magnesium Sulphate; assay type: physicochemical; conditions: vehicle dried by the Magnesium Sulfate procedure
Description: A special procedure for drying of water residues was developed. Magnesium Sulphate was added to the glass beaker filled with one of the hydrophilic vehicles. The mixture was stirred during overnight and centrifuged the following morning. Clear supernatant was collected in a separate vessel and stored in a dessicator.
The following were tested using the above procedure: mixtures of Minocycline with PEG 200, PEG 400, glycerol, prolylene glycol, polyethylene glycol.

[7] = 40° C. and 50° C. for two weeks where stated
[8] = Summary, compatibility tested after the storage for up to 3 weeks
[9] = Mixtures of 1.04% w/w of Doxycycline Hyclate with the ingredient
[10] = waterless medium with alpha-tocopherol and ascorbic acid
[11] = Group II, mixture with 1.1% of Minocycline HCl, 10 days at 40° C.
[12] = Group II, mixture with 1.1% of Minocycline HCl, T-0

CCCCCCCCCCC(CO)CCCCCCCC (stereo not drawn) [Octyldodecanol]
Compatibility with Doxycycline Hyclate [1, 7]: incompatibility
Compatibility with Doxycycline Hyclate [1, 8]: No
Compatibility with Doxycycline Monohydrate [2]: No
Compatibility with Doxycycline Monohydrate (text) [2]: incompatibility
Compatibility with Minocycline HCl [3]: full compatibility; also recorded: compatible
Compatibility with Minocycline HCL [3]: Yes

CCCC(=O)O[C@]1(C(=O)CO)CC[C@H]2[C@@H]3CCC4=CC(=O)CC[C@]4(C)[C@H]3[C@@H](O)C[C@@]21C [Hydrocortisone butyrate]
Solubility in glycofurol [4]: more than 1%
Solubility in mineral oil [4]: < 0.01%

CO[C@H]1CO[C@H]2[C@@H]1OC[C@H]2OC [Dimethyl Isosorbide]
Visual inspection at T-0 ([1]; Mixtures of 1.04% w/w of Doxycycline Hyclate with the ingredient, T-0 (two-week study)): yellow solution
Visual inspection after the storage at 25° C. [1, 9]: Yellow solution
Visual inspection after the storage at 40° C. [1, 9]: Brownish orange
Visual inspection after the storage at 50° C. [1, 9]: Orange solution
Compatibility with Doxycycline Hyclate [1, 8]: No
Visual inspection at T-0 [2]: yellow solution
Visual inspection after the storage at 25° C. [2]: orange solution
Visual inspection after the storage at 40° C. [2]: orange orange
Visual inspection after the storage at 50° C. [2]: Orange solution
Compatibility with Doxycycline Monohydrate [2]: No
Compatibility with Minocycline HCL [3]: No

Cc1cnc(NC(=O)C2=C(O)c3ccccc3S(=O)(=O)N2C)s1 [Meloxicam]
Solubility in mineral oil [4]: < 0.001%

CCCCC(=O)O[C@]1(C(=O)CO)[C@@H](C)C[C@H]2[C@@H]3CCC4=CC(=O)C=C[C@]4(C)[C@@]3(F)[C@@H](O)C[C@@]21C [Betamethasone valerate]
Solubility in glycofurol [4]: more than 1%
Solubility in mineral oil [4]: < 0.01%

CC(C)OC(=O)CCCCC(=O)OC(C)C [Diisopropyl adipate]
Compatibility with Doxycycline Hyclate [1, 8]: Yes
Compatibility with Doxycycline Monohydrate [2]: No
Compatibility with Minocycline HCL [3]: Yes

CC(C)CCCCCCCCCCCCCCC(=O)O [Isostearic Acid]
Compatibility with Doxycycline Hyclate [1, 8]: Yes
Compatibility with Minocycline HCL [3]: No

OCCCCO [Butylene glycol]
Compatibility with Doxycycline Hyclate [1, 8]: No
Visual inspection after the storage at 25° C. [2]: Orange solution
Visual inspection after the storage at 50° C. [2]: black solution
Compatibility with Doxycycline Monohydrate [2]: No
Compatibility with Minocycline HCL [3]: No

CCCCCCCCCCCCCCO [Myristyl alcohol]
Compatibility with Doxycycline Hyclate [1, 8]: Yes
Compatibility with Minocycline HCL [3]: Yes

Sorbitan Monolaurate
Visual inspection after the storage at 25° C. [1, 9]: Brown solution
Visual inspection after the storage at 40° C. [1, 9]: Brown solution
Visual inspection after the storage at 50° C. [1, 9]: Black solution
Compatibility with Doxycycline Hyclate [1, 8]: No
Visual inspection at T-0 [2]: Brown mixture
Visual inspection after the storage at 25° C. [2]: orange solution
Visual inspection after the storage at 40° C. [2]: Brown solution
Visual inspection after the storage at 50° C. [2]: brown solution
Compatibility with Doxycycline Monohydrate [2]: No
Compatibility with Minocycline HCL [3]: No

C[C@H]1c2cccc(O)c2C(=O)C2=C(O)[C@]3(O)C(=O)C(C(N)=O)=C(O)[C@@H](N(C)C)[C@@H]3[C@@H](O)[C@@H]21 [doxycycline monohydrate]
Solubility in alcohol ([5]; alcohol): sparingly soluble
Solubility in water ([5]; water): very slightly soluble

CC(O)CO (stereo not drawn) [Propylene glycol]
Oxidation of Minocycline HCL after dissolution in dried vehicle [6]: oxidized quickly
Compatibility with Doxycycline Hyclate [1, 8]: No
Oxidation of Doxycycline Hyclate despite added anti oxidants [1, 10]: did not prevent the oxidation
Compatibility with Doxycycline Monohydrate [2]: No
Oxidation of Doxycycline Monohydrate despite added anti oxidants [2, 10]: did not prevent the oxidation
Compatibility with Minocycline HCL [3]: No
Oxidation of Minocycline HCL despite added anti oxidants [3, 10]: did not prevent the oxidation

C/C(=C\C(=O)OCCCCCCCCC(=O)O)C[C@@H]1OC[C@H](C[C@@H]2O[C@H]2[C@@H](C)[C@H](C)O)[C@@H](O)[C@H]1O [Mupirocin]
Solubility in dimethyl isosorbide [4]: more than 1%
Solubility in glycofurol [4]: more than 1%
Solubility in mineral oil [4]: < 0.01%
Solubility in polyethylene glycol 400 (PEG 400) [4]: more than 1%
Solubility in propylene glycol [4]: more than 1%

CCCCCCCC/C=C\CCCCCCCCO [Oleyl alcohol]
Compatibility with Doxycycline Hyclate [1, 8]: Yes
Compatibility with Minocycline HCL [3]: Yes

CCCCCCCCCCCCCCCCCCO [Stearyl alcohol]
Compatibility with Doxycycline Hyclate [1, 8]: Yes
Compatibility with Minocycline HCL [3]: Yes

CC(=O)N1CCN(c2ccc(OCC3COC(Cn4ccnc4)(c4ccc(Cl)cc4Cl)O3)cc2)CC1 (stereo not drawn) [Ketoconazole]
Solubility in dimethyl isosorbide [4]: more than 1%
Solubility in glycofurol [4]: more than 1%
Solubility in mineral oil [4]: < 0.01%
Solubility in propylene glycol [4]: more than 1%

Sorbitan Monostearate
Compatibility with Doxycycline Hyclate [1, 8]: Yes
Compatibility with Minocycline HCL [3]: Yes

Cc1ncc([N+](=O)[O-])n1CCO [Metronidazole]
Solubility in dimethyl isosorbide [4]: more than 1%
Solubility in mineral oil [4]: < 0.01%

CCO [Ethanol 95%]
Compatibility with Doxycycline Hyclate [1, 7]: stable
Compatibility with Doxycycline Hyclate [1, 8]: Yes
Visual inspection after the storage at 25° C. [2]: Brown solution
Visual inspection after the storage at 40° C. [2]: Brown solution
Visual inspection after the storage at 50° C. [2]: Black solution
Compatibility with Doxycycline Monohydrate [2]: No
Compatibility with Doxycycline Monohydrate (text) [2]: changed their colour from yellow to orange
Compatibility with Doxycycline Monohydrate (text) ([2]; listed as ethanol 95%): oxidized
Compatibility with Minocycline HCl [3]: changed their colour from yellow to orange
4-epiminocycline Assay (% w/w), 10 days at 40° C. [3, 11]: 0.39 % w/w
Minocycline Assay (% w/w), 10 days at 40° C. [3, 11]: 0.52 % w/w
4-epiminocycline Assay (% w/w), T-0 [3, 12]: 0.021 % w/w
Minocycline Assay (% w/w), T-0 [3, 12]: 0.97 % w/w
Compatibility with Minocycline HCL [3]: No

C[Si]1(C)O[Si](C)(C)O[Si](C)(C)O[Si](C)(C)O[Si](C)(C)O1 [Cyclomethicone 5 NF]
Compatibility with Doxycycline Hyclate [1, 8]: Yes
Compatibility with Doxycycline Monohydrate [2]: Yes
Compatibility with Minocycline HCL [3]: Yes

OCC(O)CO [Glycerol]
Oxidation of Minocycline HCL after dissolution in dried vehicle [6]: oxidized quickly
Compatibility with Doxycycline Hyclate [1, 8]: No
Compatibility with Doxycycline Monohydrate [2]: No
Compatibility with Minocycline HCl [3]: intensive oxidation
Compatibility with Minocycline HCL [3]: No

CC(=O)[C@H]1CC[C@H]2[C@@H]3CCC4=CC(=O)CC[C@]4(C)[C@H]3CC[C@]12C [Progesterone]
Solubility in mineral oil [4]: < 0.001%
